Experiments:
[1] = test system: colon content; test: In vitro fermentation of D-tagatose by pig caecum/colon content slurries (Example 1); type: cell-based; conditions: for Tagatose degradation: in vitro incubation; for Mole % of SCFA after microbial fermentation of D-Tagatose: Acetate / Mole % of SCFA after microbial fermentation of D-Tagatose: Butyrate / Mole % of SCFA after microbial fermentation of D-Tagatose: Capronate / Mole % of SCFA after microbial fermentation of D-Tagatose: Formate / Mole % of SCFA after microbial fermentation of D-Tagatose: Heptanoate / Mole % of SCFA after microbial fermentation of D-Tagatose: Propionate / Mole % of SCFA after microbial fermentation of D-Tagatose: Valerate: 1% tagatose added, 0–4 h
Method: In the study, one group of 8 pigs was having a standard diet+15% sucrose (unadapted), and another group of 8 pigs was fed a standard diet+5% sucrose+10% D-tagatose (adapted) for 17 days.
On the 17. day the pigs were killed 3 hours after the morning feeding, and the entire gastrointestinal tract was sectioned. […] 20% slurries were incubated at 37° C. and anaerobic conditions for 4 hours with or without 1% D-tagatose added. The amount of SCFA produced by D-tagatose is calculated as the amount produced in the assay with 1% D-tagatose added subtracted by the amount produced in the assay without D-tagatose.

[2] = In vivo absorption of SCFA in the blood (Example 3); design: species or system pig
Method: In this pig study the in vivo absorption of SCFA in the blood is measured by taking blood samples simultaneously from 3 catheters in Vena Mesenterica, Ateria mesenterica and Vena Porta over a 12 hour period after the morning feeding. The absorption is measured in the same 5 pigs at 3 different occasions, that is after 7 days adaptation to standard pig diet+20% sucrose (sucrose), the first day of switching to a standard pig diet+20% D-tagatose (unadapted), and after 7 days adaptation to a standard pig diet+20% D-tagatose (adapted). The concentration of SCFA's is determined in samples from the portal vein, that is the blood stream leading from the digestive system to the liver, and in the arterial blood, that is the blood stream before the digestive system. The difference between the two integrated by time is a measure of the intestinal absorption of SCFA's.
The area between the 2 curves is equal to the total absorption of butyrate from the intestine.

[3] = test system: human faeces; test: In vitro fermentation of tagatose by incubation of human faeces (Example 4); type: cell-based
Method: (§1) In this study 16 human volunteers deliver a faeces sample before any intake of D-tagatose (unadapted) and another faeces sample after 14 days' intake of 3×10 g of D-tagatose pr day (adapted). The 16 volunteers are on controlled diet 4 days before the delivery of each faeces samples. Faeces slurries, 20%, were incubated at 37° C. and anaerobic conditions for 48 hours with or without 1% D-tagatose added. Samples for determination of SCFA were taken after 4 hours and after 48 hours of incubation. The amount of SCFA produced by D-tagatose is calculated as the amount produced in the assay with 1% D-tagatose added subtracted by the amount produced in the assay without D-tagatose. Further, the delivered faeces samples were tested for content of various intestinal bacteria counts by spreading on selective media.

[4] = Concentration of butyrate in gastrointestinal sections at slaughtering (Example 2); type: in vivo, pig; conditions: pigs, 0, 10 or 20% D-tagatose in diet for 33 days; hind gut (FIG. 1)
Method: (§2) In this study, 3 groups of each 2 pigs were having a standard pig diet+20% sucrose, a standard pig diet+10% sucrose+10% D-tagatose, and a standard pig diet+20% D-tagatose for 33 days. The pigs were killed on the 33. day 6 hours after morning feeding, and the entire gastrointestinal tract was divided into 8 segments.
(§3) The concentrations of the various SCFA were measured in the 8 sections immediately after killing, and further the content from the 8 sections was used for 12 hour in vitro incubations at 37° C. and anaerobic conditions. In this in vitro assay no D-tagatose was added, and the fermentation products originate from unabsorbed D-tagatose and other undigestible food components from the diets.

[5] = test system: intestinal bacteria; test: Counts of intestinal bacteria in faeces on selective media (Example 4); type: in vivo; conditions: human volunteers, 3×10 g D-tagatose pr day for 14 days versus before intake (FIG. 5)
Method: as §1

[6] = test system: content from the 8 sections; test: 12 hour in vitro incubation of content from gut sections, no D-tagatose added (Example 2); type: cell-based, pig
Method: as §2, §3
The data presented here are normalized to production of SCFA pr kg feed.

[7] = oral; cited from earlier work
[8] = test system: human faecal incubations; conditions: cited from earlier work; for proportion of butyrate on fermentation: human faecal in vitro system (Mortensen et al. 1988)
[9] = addition of D-tagatose to the diet
[10] = pigs after 7 days of adaptation to 20% D-tagatose diet (FIG. 4)
[11] = 4 hours of incubation, Non-adapted
[12] = 48 hours of incubation, Adapted
[13] = 48 hours of incubation, Non-adapted
[14] = normalized pr kg feed, 0, 10 or 20% D-tagatose in diet (FIG. 3)

Question: Which results are given for `O=C(CO)[C@@H](O)[C@@H](O)[C@H](O)CO` [D-tagatose]?
Answer: Tagatose degradation ([1]; Control pigs (unadapted), colon): 1.1 g/h/kg digesta; Mole % of SCFA after microbial fermentation of D-Tagatose: Acetate ([1]; Control pigs, caecum): 54.8 Mole %; Mole % of SCFA after microbial fermentation of D-Tagatose: Butyrate ([1]; Control pigs, caecum): 18.2 Mole %; Mole % of SCFA after microbial fermentation of D-Tagatose: Capronate ([1]; Control pigs, caecum): 2.0 Mole %; Mole % of SCFA after microbial fermentation of D-Tagatose: Formate ([1]; Control pigs, caecum): 2.5 Mole %; Mole % of SCFA after microbial fermentation of D-Tagatose: Heptanoate ([1]; Control pigs, caecum): 0.2 Mole %; Mole % of SCFA after microbial fermentation of D-Tagatose: Propionate ([1]; Control pigs, caecum): 11.2 Mole %; Mole % of SCFA after microbial fermentation of D-Tagatose: Valerate ([1]; Control pigs, caecum): 11.1 Mole %; Tagatose degradation ([1]; Control pigs, caecum): 2.7 g/h/kg digesta; Mole % of SCFA after microbial fermentation of D-Tagatose: Acetate ([1]; Control pigs, colon): 70.1 Mole %; Mole % of SCFA after microbial fermentation of D-Tagatose: Butyrate ([1]; Control pigs, colon): 16.7 Mole %; Mole % of SCFA after microbial fermentation of D-Tagatose: Capronate ([1]; Control pigs, colon): 4.8 Mole %; Mole % of SCFA after microbial fermentation of D-Tagatose: Formate ([1]; Control pigs, colon): 0.0 Mole %; Mole % of SCFA after microbial fermentation of D-Tagatose: Heptanoate ([1]; Control pigs, colon): 0.6 Mole %; Mole % of SCFA after microbial fermentation of D-Tagatose: Propionate ([1]; Control pigs, colon): 0.0 Mole %; Mole % of SCFA after microbial fermentation of D-Tagatose: Valerate ([1]; Control pigs, colon): 7.8 Mole %; Tagatose degradation ([1]; D-tagatose pigs (adapted), colon): 15.3 g/h/kg digesta; Mole % of SCFA after microbial fermentation of D-Tagatose: Acetate ([1]; D-tagatose pigs, caecum): 21.5 Mole %; Mole % of SCFA after microbial fermentation of D-Tagatose: Butyrate ([1]; D-tagatose pigs, caecum): 21.8 Mole %; Mole % of SCFA after microbial fermentation of D-Tagatose: Capronate ([1]; D-tagatose pigs, caecum): 1.9 Mole %; Mole % of SCFA after microbial fermentation of D-Tagatose: Formate ([1]; D-tagatose pigs, caecum): 14.4 Mole %; Mole % of SCFA after microbial fermentation of D-Tagatose: Heptanoate ([1]; D-tagatose pigs, caecum): 0.0 Mole %; Mole % of SCFA after microbial fermentation of D-Tagatose: Propionate ([1]; D-tagatose pigs, caecum): 17.0 Mole %; Mole % of SCFA after microbial fermentation of D-Tagatose: Valerate ([1]; D-tagatose pigs, caecum): 23.4 Mole %; Tagatose degradation ([1]; D-tagatose pigs, caecum): 3.7 g/h/kg digesta; Mole % of SCFA after microbial fermentation of D-Tagatose: Acetate ([1]; D-tagatose pigs, colon): 23.3 Mole %; Mole % of SCFA after microbial fermentation of D-Tagatose: Butyrate ([1]; D-tagatose pigs, colon): 46.3 Mole %; Mole % of SCFA after microbial fermentation of D-Tagatose: Capronate ([1]; D-tagatose pigs, colon): 6.8 Mole %; Mole % of SCFA after microbial fermentation of D-Tagatose: Formate ([1]; D-tagatose pigs, colon): 3.7 Mole %; Mole % of SCFA after microbial fermentation of D-Tagatose: Heptanoate ([1]; D-tagatose pigs, colon): 0.8 Mole %; Mole % of SCFA after microbial fermentation of D-Tagatose: Propionate ([1]; D-tagatose pigs, colon): 4.0 Mole %; Mole % of SCFA after microbial fermentation of D-Tagatose: Valerate ([1]; D-tagatose pigs, colon): 15.1 Mole %; butyrate in SCFA profile ([1]; colon content from unadapted pigs): less than 20%; total absorption of butyrate (area between portal and arterial curves) ([2]; adapted versus unadapted to 20% D-tagatose diet): does not differ in the adapted and unadapted state; absorption of acetate [2, 9]: not increased; absorption of propionate [2, 9]: not increased; concentration of butyrate in arterial blood [2, 10]: increasing; concentration of butyrate in the portal blood [2, 10]: very steep increase a few hours after feeding; time of adaptation to butyrate production ([2]; pigs in vivo, 20% D-tagatose diet): ≤ 12 h; butyrate in the portal vein ([2]; pigs unadapted, first day of 20% D-tagatose diet, 12 hours after feeding (FIG. 4)): gradually increasing over the 12 hours of measuring; Molar Ratios (Mole %) of SCFA's: Acetic acid ([3]; 4 hours of incubation, Adapted): 42.1 Mole %; Molar Ratios (Mole %) of SCFA's: Butyric acid ([3]; 4 hours of incubation, Adapted): 34.7 Mole %; Molar Ratios (Mole %) of SCFA's: Capronic acid ([3]; 4 hours of incubation, Adapted): 3.5 Mole %; Molar Ratios (Mole %) of SCFA's: Formic acid ([3]; 4 hours of incubation, Adapted): 5.8 Mole %; Molar Ratios (Mole %) of SCFA's: Heptanic acid ([3]; 4 hours of incubation, Adapted): 0.6 Mole %; Molar Ratios (Mole %) of SCFA's: Lactic acid ([3]; 4 hours of incubation, Adapted): 9.0 Mole %; Molar Ratios (Mole %) of SCFA's: Propionic acid ([3]; 4 hours of incubation, Adapted): 4.1 Mole %; Molar Ratios (Mole %) of SCFA's: Valeric acid ([3]; 4 hours of incubation, Adapted): 1.0 Mole %; Total SCFA (production mmol/l) ([3]; 4 hours of incubation, Adapted): 24.3 mmol/L; Molar Ratios (Mole %) of SCFA's: Acetic acid [3, 11]: 62.8 Mole %; Molar Ratios (Mole %) of SCFA's: Butyric acid [3, 11]: 24.5 Mole %; Molar Ratios (Mole %) of SCFA's: Capronic acid [3, 11]: 6.7 Mole %; Molar Ratios (Mole %) of SCFA's: Formic acid [3, 11]: 0.5 Mole %; Molar Ratios (Mole %) of SCFA's: Heptanic acid [3, 11]: 1.1 Mole %; Molar Ratios (Mole %) of SCFA's: Lactic acid [3, 11]: 3.9 Mole %; Molar Ratios (Mole %) of SCFA's: Propionic acid [3, 11]: 0.0 Mole %; Molar Ratios (Mole %) of SCFA's: Valeric acid [3, 11]: 3.0 Mole %; Total SCFA (production mmol/l) [3, 11]: 8.8 mmol/L; Molar Ratios (Mole %) of SCFA's: Acetic acid [3, 12]: 35.3 Mole %; Molar Ratios (Mole %) of SCFA's: Butyric acid [3, 12]: 47.0 Mole %; Molar Ratios (Mole %) of SCFA's: Capronic acid [3, 12]: 13.5 Mole %; Molar Ratios (Mole %) of SCFA's: Formic acid [3, 12]: 0.1 Mole %; Molar Ratios (Mole %) of SCFA's: Heptanic acid [3, 12]: 1.2 Mole %; Molar Ratios (Mole %) of SCFA's: Lactic acid [3, 12]: 3.0 Mole %; Molar Ratios (Mole %) of SCFA's: Propionic acid [3, 12]: 0.5 Mole %; Molar Ratios (Mole %) of SCFA's: Valeric acid [3, 12]: 1.6 Mole %; Total SCFA (production mmol/l) [3, 12]: 44.0 mmol/L; Molar Ratios (Mole %) of SCFA's: Acetic acid [3, 13]: 37.7 Mole %; Molar Ratios (Mole %) of SCFA's: Butyric acid [3, 13]: 38.7 Mole %; Molar Ratios (Mole %) of SCFA's: Capronic acid [3, 13]: 15.2 Mole %; Molar Ratios (Mole %) of SCFA's: Formic acid [3, 13]: 0.0 Mole %; Molar Ratios (Mole %) of SCFA's: Heptanic acid [3, 13]: 1.6 Mole %; Molar Ratios (Mole %) of SCFA's: Lactic acid [3, 13]: 8.6 Mole %; Molar Ratios (Mole %) of SCFA's: Propionic acid [3, 13]: 0.0 Mole %; Molar Ratios (Mole %) of SCFA's: Valeric acid [3, 13]: 1.2 Mole %; Total SCFA (production mmol/l) [3, 13]: 49.0 mmol/L; time of adaptation in the in vitro incubation system ([3]; human faeces slurry, 1% D-tagatose): ≤ 48 h; concentration of butyrate in the various gastrointestinal sections at the time of slaughtering [4]: increasing in a dose response manner; entero-bacteria in faeces [5]: decreased; number of lactic acid bacteria in faeces [5]: increased in number; number of lactobacilli in faeces [5]: increased in number; 12 hour in vitro production of butyrate ([6]; content from gut sections of pigs on 0, 10 or 20% D-tagatose diet (FIG. 2)): acting in a dose response manner; total 12 hour in vitro production of SCFA in the gut: acetate [6, 14]: not influenced; total 12 hour in vitro production of SCFA in the gut: butyrate [6, 14]: in a dose response manner promote the microbiological production of butyrate; ingested D-tagatose absorbed in the small intestine [7]: 15–20%

Question: With `O=C[C@H](O)[C@@H](O)[C@@H](O)[C@H](O)C(=O)O` [galacturonic acid] as the compound, how does the “proportion of butyrate on fermentation” value [8] read?
Answer: high proportion of butyrate

Question: For `O=C(O)[C@H]1OC(O)[C@H](O)[C@@H](O)[C@@H]1O` (some centres unmarked) [glucoronic acid], which “proportion of butyrate on fermentation” value [8] is on record?
Answer: high proportion of butyrate

Question: With `OC[C@@H](O)[C@@H](O[C@H]1O[C@H](CO)[C@@H](O)[C@H](O)[C@H]1O)[C@H](O)[C@@H](O)CO` [maltitol] as the compound, how does the “butyrate on in vitro incubation” value ([8]; Rapaille and Bornet 1997) read?
Answer: 10%

Question: For `OC[C@@H](O)[C@@H](O)[C@H](O)[C@@H](O)CO` [sorbitol], which “proportion of butyrate on fermentation” value [8] is on record?
Answer: high proportion of butyrate
